# Test results taken from PubChem BioAssay AID1845194 (Molecular Pharmacology Branch, DTP, NCI, 2023).
# Tested on: 287954-098-R-J1 tumor spheroid viability
# Assay: Anticancer human tumor 287954-098-R-J1 patient-derived Ewing sarcoma cell line growth inhibition
# Conditions: spheroids with HUVEC and MSC; for IC50: curve of first compound; for viability, T/C: stronger effect = lower value
# How it was run: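 Single agents and combinations were tested on spheroids built from tumor cells plus HUVEC and hMSC, at half-log dilutions starting at or near clinical Cmax, else 10 microM; final DMSO 0.25% (v/v).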
# 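Also: spheroids exposed to compound for 7 days before viability readout.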
# 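For viability, T/C in this document: luminescent signal taken as surrogate of viable cell content; 100% = DMSO vehicle control viability and lower means growth inhibition.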
compound,measurement,setting,value
CNCc1ccc(-c2cc(-c3nc(-c4ccc(S(=O)(=O)C(C)C)cc4)cnc3N)on2)cc1 + Cn1nnc2c(C(N)=O)ncn2c1=O,IC50,second compound 1 µM,545 nM
same,IC50,second compound 3.16 µM,555 nM
same,IC50,second compound 10 µM,551 nM
same,IC50,second compound 31.6 µM,398 nM
same,IC50,second compound 100 µM,170 nM
same,"viability, T/C","second compound 1 µM, first compound 0.00949 µM",98.6%
same,"viability, T/C","second compound 1 µM, first compound 0.03 µM",103%
same,"viability, T/C","second compound 1 µM, first compound 0.0949 µM",110%
same,"viability, T/C","second compound 1 µM, first compound 0.3 µM",103%
same,"viability, T/C","second compound 1 µM, first compound 0.949 µM",0.19%
same,"viability, T/C","second compound 1 µM, first compound 3 µM",0.11%
same,"viability, T/C","second compound 3.16 µM, first compound 0.00949 µM",105%
same,"viability, T/C","second compound 3.16 µM, first compound 0.03 µM",106%
same,"viability, T/C","second compound 3.16 µM, first compound 0.0949 µM",113%
same,"viability, T/C","second compound 3.16 µM, first compound 0.3 µM",107%
same,"viability, T/C","second compound 3.16 µM, first compound 0.949 µM",0.19%
same,"viability, T/C","second compound 3.16 µM, first compound 3 µM",0.1%
same,"viability, T/C","second compound 10 µM, first compound 0.00949 µM",102%
same,"viability, T/C","second compound 10 µM, first compound 0.03 µM",110%
same,"viability, T/C","second compound 10 µM, first compound 0.0949 µM",106%
same,"viability, T/C","second compound 10 µM, first compound 0.3 µM",105%
same,"viability, T/C","second compound 10 µM, first compound 0.949 µM",0.16%
same,"viability, T/C","second compound 10 µM, first compound 3 µM",0.09%
same,"viability, T/C","second compound 31.6 µM, first compound 0.00949 µM",104%
same,"viability, T/C","second compound 31.6 µM, first compound 0.03 µM",106%
same,"viability, T/C","second compound 31.6 µM, first compound 0.0949 µM",121%
same,"viability, T/C","second compound 31.6 µM, first compound 0.3 µM",66.3%
same,"viability, T/C","second compound 31.6 µM, first compound 0.949 µM",0.13%
same,"viability, T/C","second compound 31.6 µM, first compound 3 µM",0.1%
same,"viability, T/C","second compound 100 µM, first compound 0.00949 µM",97.5%
same,"viability, T/C","second compound 100 µM, first compound 0.03 µM",100%
same,"viability, T/C","second compound 100 µM, first compound 0.0949 µM",103%
same,"viability, T/C","second compound 100 µM, first compound 0.3 µM",1.71%
same,"viability, T/C","second compound 100 µM, first compound 0.949 µM",0.14%
same,"viability, T/C","second compound 100 µM, first compound 3 µM",0.16%
CC(C)n1c(=O)n(C)c2cnc3cc(F)c(-c4ccc(OCCCN5CCCCC5)nc4)cc3c21 + Cn1nnc2c(C(N)=O)ncn2c1=O,IC50,second compound 1 µM,> 10000 nM
same,IC50,second compound 3.16 µM,> 10000 nM
same,IC50,second compound 10 µM,> 10000 nM
same,IC50,second compound 31.6 µM,> 10000 nM
same,IC50,second compound 100 µM,> 10000 nM
same,"viability, T/C","second compound 1 µM, first compound 0.0316 µM",97%
same,"viability, T/C","second compound 1 µM, first compound 0.1 µM",97.6%
same,"viability, T/C","second compound 1 µM, first compound 0.316 µM",110%
same,"viability, T/C","second compound 1 µM, first compound 1 µM",108%
same,"viability, T/C","second compound 1 µM, first compound 3.16 µM",105%
same,"viability, T/C","second compound 1 µM, first compound 10 µM",97.9%
same,"viability, T/C","second compound 3.16 µM, first compound 0.0316 µM",106%
same,"viability, T/C","second compound 3.16 µM, first compound 0.1 µM",110%
same,"viability, T/C","second compound 3.16 µM, first compound 0.316 µM",110%
same,"viability, T/C","second compound 3.16 µM, first compound 1 µM",112%
same,"viability, T/C","second compound 3.16 µM, first compound 3.16 µM",118%
same,"viability, T/C","second compound 3.16 µM, first compound 10 µM",85.9%
same,"viability, T/C","second compound 10 µM, first compound 0.0316 µM",109%
same,"viability, T/C","second compound 10 µM, first compound 0.1 µM",105%
same,"viability, T/C","second compound 10 µM, first compound 0.316 µM",104%
same,"viability, T/C","second compound 10 µM, first compound 1 µM",109%
same,"viability, T/C","second compound 10 µM, first compound 3.16 µM",118%
same,"viability, T/C","second compound 10 µM, first compound 10 µM",79.6%
same,"viability, T/C","second compound 31.6 µM, first compound 0.0316 µM",113%
same,"viability, T/C","second compound 31.6 µM, first compound 0.1 µM",110%
same,"viability, T/C","second compound 31.6 µM, first compound 0.316 µM",105%
same,"viability, T/C","second compound 31.6 µM, first compound 1 µM",113%
same,"viability, T/C","second compound 31.6 µM, first compound 3.16 µM",113%
same,"viability, T/C","second compound 31.6 µM, first compound 10 µM",85.2%
same,"viability, T/C","second compound 100 µM, first compound 0.0316 µM",92.5%
same,"viability, T/C","second compound 100 µM, first compound 0.1 µM",104%
same,"viability, T/C","second compound 100 µM, first compound 0.316 µM",94.3%
same,"viability, T/C","second compound 100 µM, first compound 1 µM",112%
same,"viability, T/C","second compound 100 µM, first compound 3.16 µM",109%
same,"viability, T/C","second compound 100 µM, first compound 10 µM",103%
